Laboratory results from patent US20160206688A1, “METHODS FOR TREATING BACTEREMIA AND OSTEOMYELITIS USING ORITAVANCIN” (THE MEDICINES COMPANY, priority 2013, published 2016).
Values after ≈ are worked out from the molar mass of the structure shown. Read-outs that look alike come from different tables or passages of the source.

Legend:
[1] = test system: exponentially-growing S. aureus; settings: within 15 minutes to 2 hours; MSSA, MRSA, and VRSA; cited from earlier work
[2] = Tolerability and laboratory findings in compassionate use subject; format: in vivo, human
Method: (§1) In response to a compassionate use request, oritavancin was administered to a subject having bacteremia.
(§2) The demographics of the subject included the following: […]; […]; […]; weight—190 lb; height—70 inches. The subject's medical history included the following: CAD s/p CABG 8/08 (SVG to OM1, SVG to PDA); severe AS s/p bioprosthetic AVR 8/08; lumbar discectomy and fusion February 2011, hardware removed Jan. 11, 2013; PVD S/p bilateral CEA 2010; CKD s/p renal artery stenting December 2011, Baseline Cr approx 3.0 s; HTN; CHF; HLD; mild pulmonary fibrosis; BPH; GERD; arthritis.
(§3) Treatment as of Feb. 8, 2013: oritavancin (1200 mg IV, Q2D×3 times, then QW×5 times).

[3] = test system: MDR SA; assay: Microdilution MIC against MDR SA by specimen source; format: cell-based, S. aureus
Method: 456 clinical, single-patient, non-consecutive, MDR SA isolates from the known specimen sources collected in 2011-2012 were analyzed. MDR was defined as resistant to ≧3 of the following: erythromycin, clindamycin, gentamicin, levofloxacin, and trimethoprim/sulfamethoxazole. 382 were MRSA and 74 were MSSA. MICs were determined by microdilution testing in accordance with CLSI M7 and M100 guidelines. Although other comparator drugs were tested, this analysis focuses on the activities of ORI, VAN, DAP, and LZD.

[4] = test system: Coagulase-negative staphylococci; assay: Broth microdilution MIC, European bacteraemia isolates 2010-2012; format: cell-based, coagulase-negative staphylococci (CoNS)
Method: (§4) A total of 2,904 clinical strains responsible for documented bacteremia among unique hospitalized patients in 38 hospitals in 11 European Union countries. Israel, Russia, Turkey and Ukraine were included in this study (2010-2012). Isolates were submitted to a central monitoring laboratory (JMI Laboratories, North Liberty. Iowa. USA), following previously established protocols. Bacterial species identification was performed by using an automated system (Vitek®2; bioMèrieux, Hazelwood, Mo., USA) or conventional biochemical algorithms, as required.
(§5) Isolates were tested for susceptibility by broth microdilution methods following the Clinical and Laboratory Standards Institute (CLSI; M07-A9, 2012) document. Susceptibility testing was performed in cation-adjusted Mueller-Hinton broth (CA-MHB) using dry-form panels manufactured by Thermo Fisher Scientific, formerly TREK Diagnostics Systems/Sensititre (Cleveland. Ohio, USA). These panels provide results equivalent to the CLSI-approved broth microdilution method supplemented with 0.002% polysorbate-80.
(§6) Quality assurance was performed by concurrent testing of CLSI-recommended (M100-S23, 2013) strains: E. faecalis ATCC 29212 and S. aureus ATCC 29213. Interpretation of comparator MIC results was in accordance with published CLSI (M100-S23) and European Committee on Antimicrobial Susceptibility Testing (EUCAST, 2013) criteria.

[5] = test system: staphylococcal clinical isolates; assay: as above; format: cell-based, staphylococci
Method: as §4, §5, §6

[6] = test system: vancomycin-resistant enterococcal bacteremia; assay: Blood culture follow-up of compassionate use subject treated with oritavancin; format: in vivo, human
Method: as §1, §2
The subject was diagnosed with: 1) vancomycin-resistant enterococcal bacteremia with intolerance of other antibiotics; and 2) possible spinal osteomyelitis.
as §3
Last blood culture was Feb. 4, 2013 (negative). Attending physician will take blood sample for culture Feb. 11, 2013 and weekly thereafter.

[7] = CoNS, Methicillin-resistant (509), at ≦0.008 mg/L
[8] = CoNS, Methicillin-susceptible (137), at ≦0.008 mg/L
[9] = CoNS, Teicoplanin MIC ≧8 mg/L (72), at ≦0.008 mg/L
[10] = Table 1, CoNS, Methicillin-resistant (509)
[11] = Table 1, CoNS, Methicillin-susceptible (137)
[12] = Table 2, Coagulase-negative staphylococci (646)
[13] = read-out: cumulative % inhibited at MIC
[14] = collection of staphylococcal clinical isolates, regardless of the methicillin susceptibility pattern

CN[C@H](CC(C)C)C(=O)N[C@H]1C(=O)N[C@@H](CC(N)=O)C(=O)N[C@H]2C(=O)N[C@H]3C(=O)N[C@H](C(=O)N[C@H](C(=O)O)c4cc(O)cc(O)c4-c4cc3ccc4O)[C@H](O[C@H]3C[C@](C)(N)[C@@H](O)[C@H](C)O3)c3ccc(c(Cl)c3)Oc3cc2cc(c3O[C@@H]2O[C@H](CO)[C@@H](O)[C@H](O)[C@H]2O[C@H]2C[C@](C)(NCc3ccc(-c4ccc(Cl)cc4)cc3)[C@@H](O)[C@H](C)O2)Oc2ccc(cc2Cl)[C@H]1O [Oritavancin, N-(4-(4-chlorophenyl)benzyl)A82846B]
reduction (bactericidal activity) [1]: ≥ 3 log | creatinine ([2]; last post-dose, reported Feb. 11, 2013, pre-treatment levels 2.8 to 3): 3.1 | tolerability ([2]; reported Feb. 20, 2013): tolerating oritavancin well without the adverse events from their previous antibiotics | creatinine ([2]; reported Feb. 20, 2013, went down from 3.1): 1.6 | MIC50 ([3]; Blood, n = 108): 0.03 µg/mL (≈ 0.0167 µM) | MIC90 ([3]; Blood, n = 108): 0.12 µg/mL (≈ 0.0669 µM) | Mode (MIC) ([3]; Blood, n = 108): 0.03 µg/mL | Range (MIC) ([3]; Blood, n = 108, in µg/mL): 0.015-0.25 | MIC50 ([3]; Respiratory, N = 157): 0.03 µg/mL (≈ 0.0167 µM) | MIC90 ([3]; Respiratory, N = 157): 0.06 µg/mL (≈ 0.0335 µM) | Mode (MIC) ([3]; Respiratory, N = 157): 0.03 µg/mL | Range (MIC) ([3]; Respiratory, N = 157, in µg/mL): 0.008-0.25 | MIC50 ([3]; Skin/Wound, N = 191): 0.03 µg/mL (≈ 0.0167 µM) | MIC90 ([3]; Skin/Wound, N = 191): 0.06 µg/mL (≈ 0.0335 µM) | Mode (MIC) ([3]; Skin/Wound, N = 191): 0.03 µg/mL | Range (MIC) ([3]; Skin/Wound, N = 191): ≦0.002-0.25 | MIC50 [4]: 0.03 µg/mL (≈ 0.0167 µM) | MIC90 [4]: 0.06 µg/mL (≈ 0.0335 µM) | MIC50 and MIC90 lower than linezolid ([4]; CoNS isolates): 16 fold | MIC values lower than vancomycin ([4]; CoNS isolates): 32- to 64 fold | MIC results relative to strains with teicoplanin MIC≦4 mg/L ([4]; CoNS with decreased susceptibility to teicoplanin (MIC≧8 mg/L)): two-fold higher | MIC ([4]; CoNS with decreased susceptibility to teicoplanin (MIC≧8 mg/L), read-out: highest MIC value): 0.25 µg/mL (≈ 0.139 µM) | Number inhibited at MIC ([4]; CoNS, Methicillin-resistant (509), at 0.015 mg/L): 77 | Number inhibited at MIC ([4]; CoNS, Methicillin-resistant (509), at 0.03 mg/L): 181 | Number inhibited at MIC ([4]; CoNS, Methicillin-resistant (509), at 0.06 mg/L): 114 | Number inhibited at MIC ([4]; CoNS, Methicillin-resistant (509), at 0.12 mg/L): 33 | Number inhibited at MIC ([4]; CoNS, Methicillin-resistant (509), at 0.25 mg/L): 4 | Number inhibited at MIC [4, 7]: 100 | cumulative % inhibited at MIC [4, 7]: 19.7% | Number inhibited at MIC ([4]; CoNS, Methicillin-susceptible (137), at 0.015 mg/L): 28 | Number inhibited at MIC ([4]; CoNS, Methicillin-susceptible (137), at 0.03 mg/L): 50 | Number inhibited at MIC ([4]; CoNS, Methicillin-susceptible (137), at 0.06 mg/L): 21 | Number inhibited at MIC ([4]; CoNS, Methicillin-susceptible (137), at 0.12 mg/L): 1 | Number inhibited at MIC [4, 8]: 37 | cumulative % inhibited at MIC [4, 8]: 27.0% | Number inhibited at MIC ([4]; CoNS, Teicoplanin MIC ≧8 mg/L (72), at 0.015 mg/L): 1 | inhibition at 0.015 µg/mL ([4]; CoNS, Teicoplanin MIC ≧8 mg/L (72), at 0.015 mg/L, read-out: cumulative % inhibited at MIC): 2.8% | Number inhibited at MIC ([4]; CoNS, Teicoplanin MIC ≧8 mg/L (72), at 0.03 mg/L): 15 | inhibition at 0.03 µg/mL ([4]; CoNS, Teicoplanin MIC ≧8 mg/L (72), at 0.03 mg/L, read-out: cumulative % inhibited at MIC): 23.6% | Number inhibited at MIC ([4]; CoNS, Teicoplanin MIC ≧8 mg/L (72), at 0.06 mg/L): 36 | inhibition at 0.06 µg/mL ([4]; CoNS, Teicoplanin MIC ≧8 mg/L (72), at 0.06 mg/L, read-out: cumulative % inhibited at MIC): 73.6% | Number inhibited at MIC ([4]; CoNS, Teicoplanin MIC ≧8 mg/L (72), at 0.12 mg/L): 15 | inhibition at 0.12 µg/mL ([4]; CoNS, Teicoplanin MIC ≧8 mg/L (72), at 0.12 mg/L, read-out: cumulative % inhibited at MIC): 94.4% | Number inhibited at MIC ([4]; CoNS, Teicoplanin MIC ≧8 mg/L (72), at 0.25 mg/L): 4 | inhibition at 0.25 µg/mL ([4]; CoNS, Teicoplanin MIC ≧8 mg/L (72), at 0.25 mg/L, read-out: cumulative % inhibited at MIC): 100% | Number inhibited at MIC [4, 9]: 1 | cumulative % inhibited at MIC [4, 9]: 1.4% | MIC50 [4, 10]: 0.03 µg/mL (≈ 0.0167 µM) | MIC90 [4, 10]: 0.06 µg/mL (≈ 0.0335 µM) | MIC50 [4, 11]: 0.03 µg/mL (≈ 0.0167 µM) | MIC90 [4, 11]: 0.06 µg/mL (≈ 0.0335 µM) | MIC50 ([4]; Table 1, CoNS, Teicoplanin MIC ≧8 mg/L (72), read-out: MIC 50%): 0.06 µg/mL (≈ 0.0335 µM) | MIC90 ([4]; Table 1, CoNS, Teicoplanin MIC ≧8 mg/L (72), read-out: MIC 90%): 0.12 µg/mL (≈ 0.0669 µM) | MIC50 [4, 12]: 0.03 µg/mL (≈ 0.0167 µM) | MIC90 [4, 12]: 0.06 µg/mL (≈ 0.0335 µM) | MIC Range [4, 12]: ≦0.008-0.25 mg/L | inhibition at 0.015 µg/mL [4, 13]: 41.8% | inhibition at 0.03 µg/mL [4, 13]: 79.4% | inhibition at 0.06 µg/mL [4, 13]: 96.7% | inhibition at 0.12 µg/mL [4, 13]: 100% | inhibition at 0.015 µg/mL ([4]; read-out: cumulative % inhibited at MIC, CoNS, Methicillin-resistant (509), at 0.015 mg/L): 34.8% | inhibition at 0.03 µg/mL ([4]; read-out: cumulative % inhibited at MIC, CoNS, Methicillin-resistant (509), at 0.03 mg/L): 70.3% | inhibition at 0.06 µg/mL ([4]; read-out: cumulative % inhibited at MIC, CoNS, Methicillin-resistant (509), at 0.06 mg/L): 92.7% | inhibition at 0.12 µg/mL ([4]; read-out: cumulative % inhibited at MIC, CoNS, Methicillin-resistant (509), at 0.12 mg/L): 99.2% | inhibition at 0.25 µg/mL ([4]; read-out: cumulative % inhibited at MIC, CoNS, Methicillin-resistant (509), at 0.25 mg/L): 100% | inhibition at 0.015 µg/mL ([4]; read-out: cumulative % inhibited at MIC, CoNS, Methicillin-susceptible (137), at 0.015 mg/L): 47.5% | inhibition at 0.03 µg/mL ([4]; read-out: cumulative % inhibited at MIC, CoNS, Methicillin-susceptible (137), at 0.03 mg/L): 83.9% | inhibition at 0.06 µg/mL ([4]; read-out: cumulative % inhibited at MIC, CoNS, Methicillin-susceptible (137), at 0.06 mg/L): 99.3% | inhibition at 0.12 µg/mL ([4]; read-out: cumulative % inhibited at MIC, CoNS, Methicillin-susceptible (137), at 0.12 mg/L): 100% | concentration inhibiting all strains ([5]; all staphylococci, including resistant subsets): ≤ 0.25 mg/L | MIC50 [5, 14]: 0.03 µg/mL (≈ 0.0167 µM) | MICE [5, 14]: 0.06 mg/L | effect of methicillin-resistance phenotype on in vitro activity ([5]; staphylococci): not affected | blood culture ([6]; Feb. 11, 2013 sample, after two 1200 mg IV doses): negative | blood culture ([6]; samples taken Feb. 19, 2013, culture duration is 5 days): so far negative
